Among the data in ChEMBL document CHEMBL5465560, “Selectivity Literature for EUbOPEN Chemogenomic Library” (2024) are % of control, dTagg and % of inhibition values, retold here.

Assay [1] addresses Glycogen synthase kinase-3 alpha (Homo sapiens, UniProt P49840). Nature of the assay: Selectivity interaction (KinomeScan (DiscoverX)) EUB0001079a GSK3A. To be noted: at 1 µM.
For assay [2], the target named is Rho-associated protein kinase 2 (Homo sapiens, UniProt O75116). Description: Selectivity interaction (Millipore kinase profiler) EUB0000124b ROCK2. The note with it: at 10 µM.
Assay [3] deals with T1, Ephrin type-B receptor 2 (Homo sapiens) (UniProt P29323).
T1 sequence (whole entry): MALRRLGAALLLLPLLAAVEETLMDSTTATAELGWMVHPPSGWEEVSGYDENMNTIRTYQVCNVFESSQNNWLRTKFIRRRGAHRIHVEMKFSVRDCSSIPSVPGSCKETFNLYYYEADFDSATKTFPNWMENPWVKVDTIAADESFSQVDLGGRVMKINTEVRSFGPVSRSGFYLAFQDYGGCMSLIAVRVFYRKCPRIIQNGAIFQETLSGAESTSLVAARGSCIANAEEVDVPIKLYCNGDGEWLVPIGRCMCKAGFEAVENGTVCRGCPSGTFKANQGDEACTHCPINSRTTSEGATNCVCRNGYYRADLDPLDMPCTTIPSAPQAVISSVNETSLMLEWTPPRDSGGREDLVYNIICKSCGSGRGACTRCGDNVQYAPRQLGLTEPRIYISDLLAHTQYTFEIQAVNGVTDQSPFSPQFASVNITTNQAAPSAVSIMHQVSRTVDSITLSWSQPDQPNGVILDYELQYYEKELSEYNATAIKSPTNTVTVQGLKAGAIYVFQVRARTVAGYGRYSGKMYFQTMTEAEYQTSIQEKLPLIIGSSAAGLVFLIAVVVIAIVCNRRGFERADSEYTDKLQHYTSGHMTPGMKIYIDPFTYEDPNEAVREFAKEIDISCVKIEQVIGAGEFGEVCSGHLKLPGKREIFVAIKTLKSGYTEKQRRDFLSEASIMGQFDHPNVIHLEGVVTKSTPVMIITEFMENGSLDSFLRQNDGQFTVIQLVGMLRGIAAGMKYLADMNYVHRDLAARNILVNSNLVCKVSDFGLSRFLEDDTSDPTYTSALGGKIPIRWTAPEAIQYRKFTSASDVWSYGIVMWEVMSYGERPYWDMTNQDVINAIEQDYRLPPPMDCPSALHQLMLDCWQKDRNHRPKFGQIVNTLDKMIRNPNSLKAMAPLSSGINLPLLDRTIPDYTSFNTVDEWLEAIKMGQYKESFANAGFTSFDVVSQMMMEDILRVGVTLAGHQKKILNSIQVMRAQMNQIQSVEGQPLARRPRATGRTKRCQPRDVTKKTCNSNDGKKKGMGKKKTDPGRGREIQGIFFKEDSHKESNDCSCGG
Description: Selectivity interaction (KinomeScan (DiscoverX)) EUB0001049a EPHB2. To be noted: at 1 µM.

Assay [4] has as its target Mitogen-activated protein kinase kinase kinase 10 (Homo sapiens) (UniProt Q02779). Description: Selectivity interaction (KinomeScan (DiscoverX)) EUB0000655a MAP3K10. To be noted: at 10 µM.
For assay [5], the target named is T2, Myosin light chain kinase (Homo sapiens) (UniProt Q32MK0).
T2 sequence (whole entry): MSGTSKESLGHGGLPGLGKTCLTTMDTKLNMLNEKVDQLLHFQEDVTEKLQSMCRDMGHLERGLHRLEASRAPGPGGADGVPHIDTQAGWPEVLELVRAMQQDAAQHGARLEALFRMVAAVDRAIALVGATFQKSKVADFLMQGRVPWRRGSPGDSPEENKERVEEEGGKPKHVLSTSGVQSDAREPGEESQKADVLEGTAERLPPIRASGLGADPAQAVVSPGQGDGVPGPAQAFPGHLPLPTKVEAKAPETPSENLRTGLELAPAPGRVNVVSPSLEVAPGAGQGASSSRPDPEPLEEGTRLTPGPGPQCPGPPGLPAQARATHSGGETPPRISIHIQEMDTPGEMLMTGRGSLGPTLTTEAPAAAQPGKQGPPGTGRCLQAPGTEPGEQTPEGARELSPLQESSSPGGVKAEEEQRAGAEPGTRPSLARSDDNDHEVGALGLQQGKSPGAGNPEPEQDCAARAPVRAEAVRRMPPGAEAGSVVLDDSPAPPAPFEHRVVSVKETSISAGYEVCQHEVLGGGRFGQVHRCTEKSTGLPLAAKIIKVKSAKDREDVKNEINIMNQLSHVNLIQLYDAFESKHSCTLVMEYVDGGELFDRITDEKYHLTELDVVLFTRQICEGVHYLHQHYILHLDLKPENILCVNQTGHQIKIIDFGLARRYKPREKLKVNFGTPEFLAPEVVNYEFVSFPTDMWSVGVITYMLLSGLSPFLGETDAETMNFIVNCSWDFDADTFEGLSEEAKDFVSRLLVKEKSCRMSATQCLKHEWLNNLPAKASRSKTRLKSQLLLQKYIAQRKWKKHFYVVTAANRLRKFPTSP
Description: Selectivity interaction (KinomeScan (DiscoverX)) EUB0000695a MYLK3. To be noted: at 100 nM.

The target in assay [6] is Zinc finger CW-type PWWP domain protein 1 (Homo sapiens) (UniProt Q9H0M4). Nature of the assay: Selectivity interaction (PWWP, WD40, and Tudor domain panel (DSLS measurements, literature)) EUB0000270b ZCWPW1.
Assay [7] concerns Tyrosine-protein kinase ABL1 (Homo sapiens), P00519 [T315I]. Description: Selectivity interaction (KinomeScan (DiscoverX)) EUB0000666a ABL1. To be noted: at 10 µM.
Assay [8] deals with Tyrosine-protein kinase Lyn (Homo sapiens, UniProt P07948). Description: Selectivity interaction (ActivX KiNativ screen (ex vivo kinase selectivity in human PBMCs)) EUB0001619a LYN. It is filed as cell-based. To be noted: PBMC, at 1 µM.
Assay [9] addresses Cyclin-dependent kinase 7 (Homo sapiens, UniProt P50613). Description: Selectivity interaction (KinomeScan (DiscoverX)) EUB0000618a CDK7. To be noted: at 10 µM.
In assay [10] the target is Mitogen-activated protein kinase 9 (Homo sapiens, UniProt P45984). Description: Selectivity interaction (KinomeScan (DiscoverX)) EUB0000618a MAPK9. To be noted: at 10 µM.

Each structure is given as a SMILES string.

Zinc finger CW-type PWWP domain protein 1 (Homo sapiens), sequence (Q9H0M4 whole entry, the tested form may be a part): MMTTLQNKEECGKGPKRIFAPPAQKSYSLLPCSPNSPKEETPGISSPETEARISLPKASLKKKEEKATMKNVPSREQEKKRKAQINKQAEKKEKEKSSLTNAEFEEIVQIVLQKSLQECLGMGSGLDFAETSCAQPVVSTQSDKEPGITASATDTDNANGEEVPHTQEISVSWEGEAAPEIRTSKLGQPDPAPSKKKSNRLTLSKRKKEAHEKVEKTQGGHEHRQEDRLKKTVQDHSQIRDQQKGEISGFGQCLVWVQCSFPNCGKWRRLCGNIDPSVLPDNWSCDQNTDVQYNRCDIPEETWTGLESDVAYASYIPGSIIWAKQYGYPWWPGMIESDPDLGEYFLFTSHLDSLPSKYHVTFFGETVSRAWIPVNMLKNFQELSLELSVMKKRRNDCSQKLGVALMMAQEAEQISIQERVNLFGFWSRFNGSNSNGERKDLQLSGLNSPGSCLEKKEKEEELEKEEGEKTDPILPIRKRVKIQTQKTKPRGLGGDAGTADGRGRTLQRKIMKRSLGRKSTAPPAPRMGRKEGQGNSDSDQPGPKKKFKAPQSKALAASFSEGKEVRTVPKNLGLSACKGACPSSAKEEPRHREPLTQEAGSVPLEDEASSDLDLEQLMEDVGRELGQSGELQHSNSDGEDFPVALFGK
Rho-associated protein kinase 2, sequence (O75116 whole entry, looked up): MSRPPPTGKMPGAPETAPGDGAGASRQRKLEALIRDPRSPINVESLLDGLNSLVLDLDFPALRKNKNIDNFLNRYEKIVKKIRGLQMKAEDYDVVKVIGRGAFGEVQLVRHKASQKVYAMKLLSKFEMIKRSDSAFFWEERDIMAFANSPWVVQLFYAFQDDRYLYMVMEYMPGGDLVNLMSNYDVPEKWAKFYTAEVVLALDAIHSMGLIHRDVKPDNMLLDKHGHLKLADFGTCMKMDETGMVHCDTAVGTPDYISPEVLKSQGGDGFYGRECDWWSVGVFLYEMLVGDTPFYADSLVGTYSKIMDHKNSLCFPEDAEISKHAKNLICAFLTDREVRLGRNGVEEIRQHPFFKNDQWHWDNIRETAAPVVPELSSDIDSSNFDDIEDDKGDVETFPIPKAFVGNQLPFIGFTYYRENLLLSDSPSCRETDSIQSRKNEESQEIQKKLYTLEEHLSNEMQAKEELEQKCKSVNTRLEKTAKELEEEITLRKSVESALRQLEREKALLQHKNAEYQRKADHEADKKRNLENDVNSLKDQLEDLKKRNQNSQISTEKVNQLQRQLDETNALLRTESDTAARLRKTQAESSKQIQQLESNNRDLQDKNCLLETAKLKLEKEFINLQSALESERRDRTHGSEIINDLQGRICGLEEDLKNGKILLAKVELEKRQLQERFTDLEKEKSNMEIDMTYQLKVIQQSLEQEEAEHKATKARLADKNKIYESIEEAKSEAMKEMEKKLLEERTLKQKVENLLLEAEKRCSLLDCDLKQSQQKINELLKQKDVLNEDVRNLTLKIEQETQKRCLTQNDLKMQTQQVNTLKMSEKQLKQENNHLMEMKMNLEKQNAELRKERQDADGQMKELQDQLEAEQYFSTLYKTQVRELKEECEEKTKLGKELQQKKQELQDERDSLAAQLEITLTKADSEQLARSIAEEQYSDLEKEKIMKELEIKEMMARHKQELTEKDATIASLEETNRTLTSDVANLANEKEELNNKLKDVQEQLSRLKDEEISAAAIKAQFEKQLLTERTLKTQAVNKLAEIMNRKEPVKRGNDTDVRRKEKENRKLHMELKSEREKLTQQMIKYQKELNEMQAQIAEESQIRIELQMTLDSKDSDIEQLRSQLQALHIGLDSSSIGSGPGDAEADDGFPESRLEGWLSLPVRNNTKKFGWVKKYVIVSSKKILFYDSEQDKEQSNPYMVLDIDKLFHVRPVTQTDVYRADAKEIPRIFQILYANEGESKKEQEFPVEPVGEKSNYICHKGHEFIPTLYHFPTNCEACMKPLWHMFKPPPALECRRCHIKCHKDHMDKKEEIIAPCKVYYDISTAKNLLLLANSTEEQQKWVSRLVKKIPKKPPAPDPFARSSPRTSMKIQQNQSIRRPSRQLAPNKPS
Mitogen-activated protein kinase 9, sequence (P45984 whole entry, looked up): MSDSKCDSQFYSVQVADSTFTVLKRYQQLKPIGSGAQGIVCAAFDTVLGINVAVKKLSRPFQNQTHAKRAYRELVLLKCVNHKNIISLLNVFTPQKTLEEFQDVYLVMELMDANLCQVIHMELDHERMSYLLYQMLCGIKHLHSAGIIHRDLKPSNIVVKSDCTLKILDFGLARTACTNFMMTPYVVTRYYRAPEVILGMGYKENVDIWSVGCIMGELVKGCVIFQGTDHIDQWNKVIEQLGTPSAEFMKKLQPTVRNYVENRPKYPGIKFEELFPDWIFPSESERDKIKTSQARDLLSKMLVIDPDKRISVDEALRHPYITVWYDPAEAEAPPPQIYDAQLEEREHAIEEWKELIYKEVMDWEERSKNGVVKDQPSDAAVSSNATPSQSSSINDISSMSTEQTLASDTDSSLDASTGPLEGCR
Tyrosine-protein kinase Lyn, sequence (P07948 2-512 limits assumed): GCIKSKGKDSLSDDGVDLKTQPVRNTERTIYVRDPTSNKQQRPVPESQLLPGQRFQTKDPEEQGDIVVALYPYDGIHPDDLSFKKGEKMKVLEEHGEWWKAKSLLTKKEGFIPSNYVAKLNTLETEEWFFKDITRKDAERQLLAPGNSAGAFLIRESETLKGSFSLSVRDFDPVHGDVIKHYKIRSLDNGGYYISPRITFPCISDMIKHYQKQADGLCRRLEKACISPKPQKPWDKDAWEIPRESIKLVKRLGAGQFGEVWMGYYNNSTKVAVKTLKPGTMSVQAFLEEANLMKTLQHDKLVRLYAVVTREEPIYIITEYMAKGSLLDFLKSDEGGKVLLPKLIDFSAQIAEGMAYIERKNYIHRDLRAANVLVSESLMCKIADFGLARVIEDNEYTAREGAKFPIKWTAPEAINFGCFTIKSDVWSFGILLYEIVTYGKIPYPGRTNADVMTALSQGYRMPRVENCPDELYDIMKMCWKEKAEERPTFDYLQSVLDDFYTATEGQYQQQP
Mitogen-activated protein kinase kinase kinase 10 (Homo sapiens), sequence (Q02779 whole entry, looked up): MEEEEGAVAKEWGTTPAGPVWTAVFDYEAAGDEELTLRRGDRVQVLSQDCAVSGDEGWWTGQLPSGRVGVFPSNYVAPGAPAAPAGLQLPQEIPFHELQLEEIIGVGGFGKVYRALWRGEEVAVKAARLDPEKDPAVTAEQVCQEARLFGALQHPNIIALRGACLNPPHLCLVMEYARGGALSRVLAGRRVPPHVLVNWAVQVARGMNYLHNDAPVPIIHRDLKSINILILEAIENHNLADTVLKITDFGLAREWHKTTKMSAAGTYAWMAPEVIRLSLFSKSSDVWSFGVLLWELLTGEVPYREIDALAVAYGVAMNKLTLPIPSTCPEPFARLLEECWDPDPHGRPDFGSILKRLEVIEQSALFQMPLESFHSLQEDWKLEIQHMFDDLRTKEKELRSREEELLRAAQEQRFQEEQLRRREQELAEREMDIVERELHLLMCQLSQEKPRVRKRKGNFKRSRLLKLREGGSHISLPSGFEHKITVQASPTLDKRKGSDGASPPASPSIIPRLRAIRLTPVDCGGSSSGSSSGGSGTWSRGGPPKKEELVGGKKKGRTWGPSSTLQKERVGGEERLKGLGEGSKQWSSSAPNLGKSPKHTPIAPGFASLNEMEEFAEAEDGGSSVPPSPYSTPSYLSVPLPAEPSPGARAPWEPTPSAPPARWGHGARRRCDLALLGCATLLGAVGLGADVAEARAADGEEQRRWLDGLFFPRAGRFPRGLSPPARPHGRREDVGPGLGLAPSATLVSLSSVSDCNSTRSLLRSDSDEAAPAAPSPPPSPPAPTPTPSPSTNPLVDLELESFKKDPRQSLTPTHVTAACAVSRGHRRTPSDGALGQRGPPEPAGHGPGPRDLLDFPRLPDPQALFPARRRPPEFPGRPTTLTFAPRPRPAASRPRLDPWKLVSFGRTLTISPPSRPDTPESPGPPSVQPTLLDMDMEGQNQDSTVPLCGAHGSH
Glycogen synthase kinase-3 alpha, sequence (P49840 2-483 limits assumed): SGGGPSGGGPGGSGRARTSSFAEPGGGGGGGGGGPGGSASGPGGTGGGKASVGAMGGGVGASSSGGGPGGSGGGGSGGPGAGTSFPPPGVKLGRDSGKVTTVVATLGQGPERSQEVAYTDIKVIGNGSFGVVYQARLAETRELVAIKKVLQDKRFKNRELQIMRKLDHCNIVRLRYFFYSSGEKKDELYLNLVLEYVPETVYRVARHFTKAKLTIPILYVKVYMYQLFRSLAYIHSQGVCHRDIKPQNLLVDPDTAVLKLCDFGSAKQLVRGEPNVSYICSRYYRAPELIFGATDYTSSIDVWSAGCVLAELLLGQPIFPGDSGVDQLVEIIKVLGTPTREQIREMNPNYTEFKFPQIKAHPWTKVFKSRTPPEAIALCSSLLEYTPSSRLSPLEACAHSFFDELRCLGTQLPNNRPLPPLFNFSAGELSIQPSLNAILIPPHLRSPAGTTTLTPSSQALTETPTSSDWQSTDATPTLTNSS
Cyclin-dependent kinase 7, sequence (P50613 whole entry): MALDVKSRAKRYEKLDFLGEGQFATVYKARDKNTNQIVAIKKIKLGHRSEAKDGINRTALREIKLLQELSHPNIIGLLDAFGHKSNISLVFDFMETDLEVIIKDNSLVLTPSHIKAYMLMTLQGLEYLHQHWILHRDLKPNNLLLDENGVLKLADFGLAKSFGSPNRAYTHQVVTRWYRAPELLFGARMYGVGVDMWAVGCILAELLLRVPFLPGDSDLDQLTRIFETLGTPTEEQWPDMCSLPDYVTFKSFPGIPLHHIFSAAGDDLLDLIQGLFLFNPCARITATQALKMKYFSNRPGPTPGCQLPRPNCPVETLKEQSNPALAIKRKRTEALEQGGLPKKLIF

Turning to `Nc1cnc(N2CCc3cc(S(=O)(=O)Nc4c(F)cc(Cl)cc4F)cc(N4CCCC4=O)c32)nc1` [TP-020n], the % of control in [1] is 100%.

`CC(=O)Nc1cccc(-n2c(=O)n(C3CC3)c(=O)c3c(Nc4ccc(I)cc4F)n(C)c(=O)c(C)c32)c1`: the % of control in assay [2] came out at 99%.

`COc1cc(Nc2nc(C)cc(-c3cnn4nc(OC)ccc34)n2)cc(C(F)(F)F)c1` registered a % of control in assay [3] of 92%.

`CN(C)CCOc1ccc(-c2nc(-c3ccncc3)c(-c3ccc4c(c3)CC/C4=N\O)[nH]2)cc1`: the % of control in assay [4] was 92%.

The compound `Cc1cc(F)c(C(=O)Nc2cccc(-c3nncn3C(C)C)n2)cc1-n1cnc(C2CC2)c1` displayed a % of control in assay [5] of 100%.

`Cc1cc(CN)cc(C)c1-c1ncn(C)c1-c1cncn1C` came in with a dTagg in [6] of 0 K.

On to `O=C(NOC[C@H](O)CO)c1ccc(F)c(F)c1Nc1ccc(I)cc1F`, for which the % of control in assay [7] was 86%.

The compound `N#Cc1cccc(-c2c[nH]c3ncnc(N4CCOCC4)c23)c1` gave a % of inhibition in assay [8] of 1%.

In the case of `O[C@H]1CC[C@H](Nc2ncc3nc(Nc4c(F)cc(F)cc4F)n([C@H]4CCOC4)c3n2)CC1`, the % of control is 100% in [9] and 0% in assay [10].
